Measurements reported in US20240116985A1, “STAPLED PEPTIDES AND METHODS THEREOF” (priority 2020, published 2024).
Values after ≈ are worked out from the molar mass of the structure shown. Values joined by “and” are separate entries in the source; they are usually repeats but may differ in a detail not shown here. Equal entries are not always repeated. Where two headings read alike, the source gives them in different places.

Assays:
[1] = CHI Log D procedure; format: physicochemical; conditions: for chromatographic logD: pH 7.4, CHI Log D; for CHI Log D: pH 7.4
[2] = molecular target: T1, full-length beta-Catenin (Uniprot ID P35222) (Homo sapiens, UniProt P35222); assay: Fluorescence polarization IC50 (beta-catenin / 5FAM-TCF4 10-53 competition); format: binding
T1 construct: 10 nM full-length beta-Catenin (Uniprot ID P35222)
T1 sequence (P35222 1-781): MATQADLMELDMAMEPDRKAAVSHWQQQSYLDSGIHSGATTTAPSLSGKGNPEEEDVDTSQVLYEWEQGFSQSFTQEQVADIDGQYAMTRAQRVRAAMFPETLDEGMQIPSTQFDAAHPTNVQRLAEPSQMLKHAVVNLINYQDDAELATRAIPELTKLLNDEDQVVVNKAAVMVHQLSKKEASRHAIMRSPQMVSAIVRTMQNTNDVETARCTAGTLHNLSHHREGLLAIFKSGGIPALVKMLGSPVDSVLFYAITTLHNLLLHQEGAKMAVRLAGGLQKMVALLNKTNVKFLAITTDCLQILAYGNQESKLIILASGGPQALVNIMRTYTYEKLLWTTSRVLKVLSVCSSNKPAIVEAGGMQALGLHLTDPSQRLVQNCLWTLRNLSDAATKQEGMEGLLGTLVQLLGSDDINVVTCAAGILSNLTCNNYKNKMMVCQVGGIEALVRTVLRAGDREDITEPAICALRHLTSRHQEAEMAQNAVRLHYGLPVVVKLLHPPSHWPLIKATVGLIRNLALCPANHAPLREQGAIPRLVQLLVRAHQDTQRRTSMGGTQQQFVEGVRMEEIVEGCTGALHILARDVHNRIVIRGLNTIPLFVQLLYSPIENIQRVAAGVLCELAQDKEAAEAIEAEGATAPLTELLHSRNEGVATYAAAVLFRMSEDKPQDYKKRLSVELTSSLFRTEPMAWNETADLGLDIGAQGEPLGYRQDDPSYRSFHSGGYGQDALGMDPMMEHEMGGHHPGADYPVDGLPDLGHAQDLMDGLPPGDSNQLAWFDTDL

[3] = tested on: TCF/LEF luciferase Reporter in DLD1 cells; assay: TCF reporter assay (DLD1 TCF/LEF luciferase reporter, Bright-Glo); format: cell-based; conditions: for DLD1 TCF c2 BrightGlo % Inhibition: replicates
How it was run: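 DLD1 cells stably carrying a TCF/LEF luciferase reporter were plated at 5000 cells/well in RPMI + 4% FBS and treated overnight with a 1:2 compound dilution series. Bright-Glo luminescence read on day 3; viability by CellTiter-Glo. Absolute IC50 determined.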

[4] = Solubility in PBS; format: physicochemical
How it was run: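 HPLC quantitation of peptide remaining in the PBS supernatant after ultracentrifugation, referenced to a 50 μM solution in DMSO.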

[5] = molecular target: T2, beta-catenin/TCF4 engagement (Homo sapiens, UniProt P35222); assay: Nano-BRET target engagement assay (B-cat-Halo & TCF4-Luc in HEK293 cells); format: cell-based; conditions: read-out: NanoBRET Abs IC50
T2 construct: expressed in transfected cells; host or cells: HEK293
T2 sequence (P35222 1-781): T1 sequence (P35222 1-781)

[6] = absolute IC50, read-out: DLD1 reporter assay Abs IC50
[7] = fluorescence polarization, beta-catenin, read-out: FP EC50
[8] = first dose = 20 uM (plate map), 20 µM
[9] = read-out: DLD1 4% Abs IC50, DLD1 4%
[10] = third dose = 5 uM (plate map), 5 µM

SMILES | chromatographic logD [1] | IC50 ([2]; read-out: beta-Catenin FP IC50) | IC50 [3, 6] | Solubility ([4]; Solubility (uM)) | IC50 ([5]; absolute IC50) | CHI Log D [1] | IC50 [2, 7] | IC50 [3, 9] | Solubility [4] | IC50 [5] | IC50 ([2]; fluorescence polarization, read-out: beta-Catenin FP IC50) | IC50 ([3]; read-out: DLD1 4% Abs IC50, DLD1 reporter, 4%, absolute IC50) | DLD1 TCF c2 BrightGlo % Inhibition [3, 8] | DLD1 TCF c2 BrightGlo % Inhibition ([3]; 0.625 µM) | DLD1 TCF c2 BrightGlo % Inhibition ([3]; 1.25 µM) | DLD1 TCF c2 BrightGlo % Inhibition ([3]; 2.5 µM) | DLD1 TCF c2 BrightGlo % Inhibition ([3]; 10 µM) | DLD1 TCF c2 BrightGlo % Inhibition [3, 10]
CC(=O)N1CCC[C@]12CC=CCCCC1(CCCC=CCCCCCC[C@@](C)(C(=O)N[C@@H](Cc3ccccc3Cl)C(=O)N[C@@H](Cc3csc4ccccc34)C(=O)N[C@@H](CCO)C(N)=O)NC(=O)[C@H](CO)NC(=O)[C@H](Cc3ccccc3)NC(=O)[C@H](C)NC(=O)[C@H](C)NC(=O)[C@H](CN(CC(=O)O)CC(F)(F)F)NC(=O)[C@H](CC(=O)O)NC1=O)NC(=O)[C@H](CC(C)(C)C)NC(=O)[C@H](CC(=O)O)NC2=O (single isomer, unassigned) [I-999, Ac-PL3-Asp-Npg-B5-Asp-TfeGA-Ala-Ala-Phe-Ser-S8-2C1F-BztA-Hse-NH2] |  | 26 nM | 11.1 µM |  | 26.3 µM | 2.941 | 26 nM | 5.6 µM | 30 µM (≈ 58.8 µg/mL) | 26.3 µM |  |  | 63.2% and 71.4% and 68.9% | 7.7% and 8.8% and 6.4% | 1.7% and 8.0% and 4.0% | 14.3% and 11.9% and 4.4% | 42.0% and 49.2% and 49.7% | 18.2% and 32.5% and 23.9%
CC(=O)N1CCC[C@]12CC=CCCCC1(CCCC=CCCCCCC[C@@](C)(C(=O)N[C@@H](Cc3ccccc3Cl)C(=O)N[C@@H](Cc3csc4ccccc34)C(=O)N[C@@H](CCO)C(N)=O)NC(=O)[C@H](CCO)NC(=O)[C@H](Cc3ccccc3)NC(=O)[C@H](C)NC(=O)[C@H](C)NC(=O)[C@H](CN(CC(=O)O)CC(F)(F)F)NC(=O)[C@H](CC(=O)O)NC1=O)NC(=O)[C@H](CC(C)(C)C)NC(=O)[C@H](CC(=O)O)NC2=O (stereo partly drawn) [I-1000, Ac-PL3-Asp-Npg-B5-Asp-TfeGA-Ala-Ala-Phe-Hse-S8-2C1F-BztA-Hse-NH2] | 2.97 | 18 nM | 8 µM | 44 µM (≈ 86.9 µg/mL) | 23.9 µM |  |  | 1.9 µM |  |  |  |  | 79.5% (2×) and 79.7% | −3.4% and 2.4% and 4.9% | −0.6% and −1.2% and 1.5% | 5.5% and 10.2% and 12.4% | 57.0% and 59.8% and 61.4% | 25.7% and 29.9% and 32.3%
CC(=O)N1CCC[C@]12CC=CCCCC1(CCCC=CCCCOC(=O)N3CC[C@@](C(=O)N[C@@H](Cc4ccccc4C(F)(F)F)C(=O)N[C@@H](Cc4csc5ccccc45)C(=O)N[C@@H](CCC(N)=O)C(N)=O)(C3)NC(=O)[C@H](Cc3ccccc3)NC(=O)[C@H](Cc3ccccc3)NC(=O)[C@H](C)NC(=O)[C@H](C)NC(=O)[C@H](CC(=O)O)NC(=O)[C@H](CC(=O)O)NC1=O)NC(=O)[C@H](CC(C)(C)C)NC(=O)[C@H](CC(=O)O)NC2=O (stereo partly drawn) [I-1319, Ac-PL3-Asp-Npg-B5-Asp-Asp-Ala-Ala-Phe-Phe-PyrS2-2F3MeF-BztA-Gln-NH2] |  |  |  |  | 4.2 µM |  |  |  | 10 µM (≈ 20.1 µg/mL) |  | 10 nM | 2.1 µM |  |  |  |  |  | 
CCN(CC(=O)O)C[C@@H]1NC(=O)[C@H](CC(=O)O)NC(=O)C2(CCCC=CCCCOC(=O)N3CC[C@@](C(=O)N[C@@H](Cc4ccsc4)C(=O)N[C@@H](Cc4csc5ccccc45)C(=O)N[C@@H](CCC(N)=O)C(N)=O)(C3)NC(=O)[C@H](CC(C)C)NC(=O)[C@H](Cc3ccccc3)NC(=O)[C@H](C)NC(=O)[C@H](C)NC1=O)CCCC=CC[C@]1(CCCN1C(C)=O)C(=O)N[C@@H](CC(=O)O)C(=O)N[C@@H](CC(C)(C)C)C(=O)N2 (stereo partly drawn) [I-973, Ac-PL3-Asp-Npg-B5-Asp-EtGA-Ala-Ala-Phe-Leu-PyrS2-3Thi-BztA-Gln-NH2] |  | 9 nM |  |  |  | 1.95 | 1380 nM | 10.1 µM | 10 µM (≈ 19.7 µg/mL) |  |  |  |  |  |  |  |  | 

Continued, in another order:

chromatographic logD [1] | IC50 ([2]; read-out: beta-Catenin FP IC50) | IC50 [3, 6] | Solubility ([4]; Solubility (uM)) | IC50 ([5]; absolute IC50) | CHI Log D [1] | IC50 [2, 7] | IC50 [3, 9] | Solubility [4] | IC50 [5] | IC50 ([2]; fluorescence polarization, read-out: beta-Catenin FP IC50) | IC50 ([3]; read-out: DLD1 4% Abs IC50, DLD1 reporter, 4%, absolute IC50) | SMILES | DLD1 TCF c2 BrightGlo % Inhibition [3, 8] | DLD1 TCF c2 BrightGlo % Inhibition ([3]; 0.625 µM) | DLD1 TCF c2 BrightGlo % Inhibition ([3]; 1.25 µM) | DLD1 TCF c2 BrightGlo % Inhibition ([3]; 2.5 µM) | DLD1 TCF c2 BrightGlo % Inhibition ([3]; 10 µM) | DLD1 TCF c2 BrightGlo % Inhibition [3, 10]
2.52 | 5 nM | 10.5 µM | 42 µM (≈ 80.6 µg/mL) | 8.8 µM |  |  |  |  |  |  |  | CC(=O)N1CCC[C@]12CC=CCCCC1(CCCC=CCCCOC(=O)N3CC[C@@](C(=O)N[C@@H](Cc4ccccc4Cl)C(=O)N[C@@H](Cc4csc5ccccc45)C(=O)N[C@@H](CO)C(N)=O)(C3)NC(=O)[C@H]([C@@H](C)O)NC(=O)[C@H](Cc3ccccc3)NC(=O)[C@H](C)NC(=O)[C@H](C)NC(=O)[C@H](CC(=O)O)NC(=O)[C@H](CC(=O)O)NC1=O)NC(=O)[C@H](CC1CCCCC1)NC(=O)[C@H](CC(=O)O)NC2=O (stereo partly drawn) [I-1048, Ac-PL3-Asp-Cha-B5-Asp-Asp-Ala-Ala-Phe-Thr-PyrS2-2C1F-BztA-Ser-NH2] |  |  |  |  |  | 
2.59 | 6 nM | 17.2 µM | 47 µM (≈ 90.2 µg/mL) | > 20 µM |  |  | 10.4 µM |  |  |  |  | CC(=O)N1CCC[C@]12CC=CCCCC1(CCCC=CCCCOC(=O)N3CC[C@@](C(=O)N[C@@H](Cc4ccccc4Cl)C(=O)N[C@@H](Cc4csc5ccccc45)C(=O)N[C@H](CO)CC(C)C)(C3)NC(=O)[C@H](CC(N)=O)NC(=O)[C@H](Cc3ccccc3)NC(=O)[C@H](C)NC(=O)[C@H](C)NC(=O)[C@H](CC(=O)O)NC(=O)[C@H](CC(=O)O)NC1=O)NC(=O)[C@H](CC(C)(C)C)NC(=O)[C@H](CC(=O)O)NC2=O (stereo partly drawn) [I-1080, Ac-PL3-Asp-Npg-B5-Asp-Asp-Ala-Ala-Phe-Asn-PyrS2-2C1F-BztA-Leuo1] | 51.4% and 56.9% and 51.8% | 20.2% and 13.7% and 15.3% | 16.0% and 13.8% and 12.3% | 14.6% and 19.8% and 7.9% | 42.4% and 42.2% and 38.1% | 24.9% and 31.0% and 24.4%
2.45 | 5 nM | 11.2 µM | 43 µM (≈ 81.9 µg/mL) | 24.8 µM |  |  |  |  |  |  |  | CC(=O)N1CCC[C@]12CC=CCCCC1(CCCC=CCCCOC(=O)N3CC[C@@](C(=O)N[C@@H](Cc4ccccc4Cl)C(=O)N[C@@H](Cc4csc5ccccc45)C(=O)N[C@@H](CO)C(N)=O)(C3)NC(=O)[C@H](CO)NC(=O)[C@H](Cc3ccccc3)NC(=O)[C@H](C)NC(=O)[C@H](C)NC(=O)[C@H](CC(=O)O)NC(=O)[C@H](CC(=O)O)NC1=O)NC(=O)[C@H](CC1CCCCC1)NC(=O)[C@H](CC(=O)O)NC2=O (stereo partly drawn) [I-1050, Ac-PL3-Asp-Cha-B5-Asp-Asp-Ala-Ala-Phe-Ser-PyrS2-2C1F-BztA-Ser-NH2] | 61.5% and 59.8% and 58.7% | 13.7% and 5.5% and 6.1% | 6.8% and −0.9% and −4.5% | 6.2% and 1.9% and −2.2% | 50.8% and 46.4% and 39.4% | 25.4% and 24.7% and 12.9%
2.22 | 5 nM | 8.3 µM | 48 µM (≈ 90.2 µg/mL) | 9.6 µM |  |  | 7.8 µM |  |  |  |  | CC(=O)N1CCC[C@]12CC=CCCCC1(CCCC=CCCCOC(=O)N3CC[C@@](C(=O)N[C@@H](Cc4ccccc4Cl)C(=O)N[C@@H](Cc4csc5ccccc45)C(=O)N[C@@H](CO)C(N)=O)(C3)NC(=O)[C@H](CO)NC(=O)[C@H](Cc3ccccc3)NC(=O)[C@H](C)NC(=O)[C@H](C)NC(=O)[C@H](CC(=O)O)NC(=O)[C@H](CC(=O)O)NC1=O)NC(=O)[C@H](CC(C)(C)C)NC(=O)[C@H](CC(=O)O)NC2=O (stereo partly drawn) [I-1019, Ac-PL3-Asp-Npg-B5-Asp-Asp-Ala-Ala-Phe-Ser-PyrS2-2C1F-BztA-Ser-NH2] |  |  |  |  |  | 
